From ChEMBL document CHEMBL4354808, “Drugs for the Treatment of Zika Virus Infection” (J Med Chem, 2020)
pEC50, pIC50, pKd, pKi: −log10 of the molar value. Values after ≈ are worked out from the molar mass of the structure shown. Each block holds one molecule with its values, some of them ahead of it. Residues, ends and D or L forms follow the SMILES beside them.

Legend:
[1] = Cytotoxicity against golden hamster BHK21 cells by Promega Viral ToxGlo Assay; format: cell-based, Mesocricetus auratus; settings: BHK-21 cells
Zika virus [2] = test: Antiviral activity against Zika virus PLCal_ZV infected in Huh7 cells by Promega Viral ToxGlo Assay; format: functional, organism-based; settings: Huh-7
NS5 [3] = target: T1, NS5 (Zika virus, UniProt A0A143MHK7); test: Inhibition of Zika virus RNA-dependent RNA polymerase using poly(rC)/rG13 as substrate after 45 mins
T1 sequence (A0A143MHK7 whole entry): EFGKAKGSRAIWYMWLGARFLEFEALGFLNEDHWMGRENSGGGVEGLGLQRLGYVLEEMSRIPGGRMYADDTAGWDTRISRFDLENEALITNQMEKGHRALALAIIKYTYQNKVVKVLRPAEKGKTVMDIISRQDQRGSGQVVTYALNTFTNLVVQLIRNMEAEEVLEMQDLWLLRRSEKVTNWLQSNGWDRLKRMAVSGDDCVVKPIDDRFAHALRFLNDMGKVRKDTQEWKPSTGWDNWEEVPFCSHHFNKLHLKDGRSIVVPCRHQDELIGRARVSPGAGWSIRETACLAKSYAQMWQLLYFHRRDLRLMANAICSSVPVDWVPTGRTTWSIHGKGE

[4] = Cytotoxicity against African green monkey Vero cells by MTT assay; format: cell-based; settings: chlorocebus sabaeus
[5] = Cytotoxicity against human HuH7 cells by MTT assay; format: cell-based; settings: Huh-7 cells
Zika virus [6] = test: Antiviral activity against Zika virus MR766 infected in African green monkey Vero cells by plaque assay; format: functional, organism-based
[7] = Cytotoxicity against BHK21 cells after 24 to 48 hrs by CCK8 assay; format: cell-based, Mesocricetus auratus; settings: hamster, BHK-21 cells
Nonstructural protein 3 [8] = target: T2, Nonstructural protein 3 (Zika virus, UniProt A0A024AXB9); test: Inhibition of Zika virus NS2B (1421 to 1469 residues) - NS3 (1503 to 1688 residues) expressed in Escherichia coli BL21(DE3) cells using Dabcyl-KTSAVLQSGFRKME-Edans as substrate after 11 mins by FRET assay
T2 sequence (A0A024AXB9 whole entry, the tested form may be a part): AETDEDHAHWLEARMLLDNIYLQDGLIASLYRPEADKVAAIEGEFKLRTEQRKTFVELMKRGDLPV

Nonstructural protein 3 [9] = target: T2, Nonstructural protein 3; test: Inhibition of N-terminal His6-tagged Zika virus NS2B (45 to 96 residues) - NS3 (1 to 177 residues) protease domain expressed in Escherichia coli BL21-Gold (DE3) cells or Escherichia coli BL21 Rosetta (DE3) preincubated for 30 mins followed by Bz-nKRR-AM substrate addition measured over 10 mins at 60 secs interval by fluorescence method
[10] = Inhibition of Protein E in Zika virus SZ01 infected in BHK21 cells assessed as antiviral activity after 12 hrs by CCK8 assay; format: cell-based; settings: SZ01, BHK-21, 12 h
[11] = Inhibition of Protein E in Zika virus FLR infected in BHK21 cells assessed as antiviral activity after 12 hrs by CCK8 assay; format: cell-based; settings: BHK-21, 12 h
[12] = Inhibition of Protein E in Zika virus MR766 infected in BHK21 cells assessed as antiviral activity after 12 hrs by CCK8 assay; format: cell-based; settings: MR766, BHK-21, 12 h
[13] = Cytotoxicity against human HuH7 cells after 24 hrs by CCK8 assay; format: cell-based; settings: Huh-7 cells
[14] = Cytotoxicity against African green monkey Vero cells after 24 hrs by CCK8 assay; format: cell-based; settings: chlorocebus sabaeus
[15] = Cytotoxicity against BHK21 cells after 24 hrs by CCK8 assay; format: cell-based, Mesocricetus auratus; settings: hamster, BHK-21 cells
Nonstructural protein 3 [16] = target: T2, Nonstructural protein 3; test: Inhibition of N-terminal His6-tagged Zika virus NS2B (49 to 95 residues) - NS3 (1 to 170 residues) protease domain expressed in Escherichia coli BL21-Gold (DE3) cells preincubated for 10 mins followed by Bz-Nle-Lys-Lys-Arg-AMC substrate addition
[17] = Cytotoxicity against African green monkey Vero cells by visual method; format: cell-based; settings: chlorocebus sabaeus
[18] = Cytotoxicity against human RD cells; format: cell-based
[19] = Cytotoxicity against African green monkey Vero cells; format: cell-based; settings: chlorocebus sabaeus
[20] = Cytotoxicity against human HuH7 cells; format: cell-based; settings: Huh-7 cells
NS5 [21] = target: T1, NS5; test: Binding affinity to Zika virus Methyltransferase
[22] = Selectivity ratio of CC50 for African green monkey Vero E6 cells to EC50 for Zika virus MR766 infected in African green monkey Vero E6 cells; format: toxicity, Vero C1008; settings: read-out: Ratio CC50/EC50
[23] = Cytotoxicity against African green monkey Vero E6 cells by the MTS method; format: cell-based, Vero C1008; settings: chlorocebus sabaeus
Zika virus [24] = test: Antiviral activity against Zika virus Mex2-81 infected in human Jeg-3 cells assessed as reduction in virus-induced toxicity preincubated with cells for 1 hr followed by viral infection and measured 36 hrs post infection; format: functional, organism-based; settings: Mex2-81, JEG-3
[25] = Cytotoxicity against human JEG3 cells incubated for 36 hrs by resazurin-dye based Alamar blue assay; format: cell-based; settings: JEG-3 cells
[26] = Cytotoxicity against human NSC by CellTiter-Glo assay; format: cell-based; settings: NSC cells
Zika virus [27] = test: Antiviral activity against Zika virus PLCal_ZV infected in human Neural progenitor cells; format: functional, organism-based
Zika virus [28] = test: Antiviral activity against Zika virus PLCal_ZV infected in African green monkey Vero cells assessed as reduction in viral titer after 1 hr by plaque assay; format: functional, organism-based

pIC50 (NS5 [3]): 5.28
SMILES: [N-]=[N+]=NCc1cnc(C(=O)NO)c(O)c1CO
CC50 [1]: 22 µM
pEC50 (Zika virus [2]): 5.34

SMILES: CO[C@@H]1[C@@H](OC(N)=O)[C@@H](O)[C@H](Oc2ccc3c(O)c(NC(=O)c4ccc(O)c(CC=C(C)C)c4)c(=O)oc3c2C)OC1(C)C [NOVOBIOCIN]
CC50 [4]: 850 µg/mL (≈ 1390 µM)
CC50 [5]: 1100 µg/mL (≈ 1800 µM)

pEC50 (Zika virus [6]): 5.64
SMILES: CCN(CC)CCCC(C)Nc1c2ccc(Cl)cc2nc2ccc(OC)cc12 (configuration not stated) [QUINACRINE]
CC50 [7]: 18.6 µM

pIC50 (Nonstructural protein 3 [8]): 3.95
SMILES: O=c1c(O[C@@H]2O[C@H](CO)[C@@H](O)[C@H](O)[C@H]2O)c(-c2ccc(O)cc2)oc2cc(O)cc(O)c12 [ASTRAGALIN]

pIC50 (Nonstructural protein 3 [9]): 5.82
SMILES: COc1ccc(S(=O)(=O)n2nc(OC(=O)c3ccccc3)cc2N)cc1

SMILES: CC[C@H](C)[C@H](NC(=O)CNC(=O)[C@H](CCCCN)NC(=O)CNC(=O)[C@H](CC(C)C)NC(=O)[C@H](CO)NC(=O)[C@H](CC(N)=O)NC(=O)[C@H](CC(C)C)NC(=O)[C@H](C)NC(=O)CNC(=O)CNC(=O)[C@@H](NC(=O)[C@H](CO)NC(=O)CNC(=O)[C@H](Cc1ccccc1)NC(=O)[C@H](CC(=O)O)NC(=O)[C@H](Cc1c[nH]c2ccccc12)NC(=O)[C@H](C)NC(=O)[C@@H](NC(=O)[C@H](CC(=O)O)NC(=O)CNC(=O)[C@H](CC(C)C)NC(=O)[C@@H](NC(=O)[C@H](C)NC(=O)[C@@H](N)CCSC)C(C)C)[C@@H](C)O)C(C)C)C(=O)N[C@@H](Cc1cnc[nH]1)C(=O)N[C@@H](CCC(N)=O)C(=O)N[C@H](C(=O)N[C@@H](Cc1ccccc1)C(=O)NCC(=O)N[C@@H](C)C(=O)N[C@@H](C)C(=O)N[C@@H](Cc1ccccc1)C(=O)O)[C@@H](C)CC (H-MAVLGDTAWDFGSVGGALNSLGKGIHQIFGAAF-OH)
pEC50 [10]: 4.86 to 5.76
pEC50 [11]: 4.86 to 5.76
pEC50 [12]: 4.86 to 5.76
CC50 at 24 h [13]: > 50 µM
CC50 at 24 h [14]: > 50 µM
CC50 at 24 h [15]: > 50 µM

pIC50 (Nonstructural protein 3 [16]): 6.60
pKi (Nonstructural protein 3 [16]): 7.40
SMILES: N=C(N)NCCC[C@H](NC(=O)[C@H](Cc1ccc(CN)cc1)NC(=O)c1ccccc1)B(O)O

SMILES: Nc1ncnc2c1ccn2[C@@H]1O[C@H](CO)[C@@H](O)[C@H]1O [TUBERCIDIN]
CC50 [17]: > 357 µM

SMILES: Nc1ncnc2c([C@@H]3N[C@H](CO)[C@@H](O)[C@H]3O)c[nH]c12
CC50 [18]: > 89 µM
CC50 [19]: > 89 µM
CC50 [20]: > 89 µM

pKd (NS5 [21]): 4.61
SMILES: Nc1ncnc2c1ncn2[C@@H]1O[C@H](CN(CC[C@H](N)C(=O)O)Cc2ccc(F)cc2)[C@@H](O)[C@H]1O

SMILES: CCCCCOCc1c(Nc2ccc(S(N)(=O)=O)cc2)nc(N2CCOCC2)nc1C(=O)NCCOc1ccccc1
selectivity ratio [22]: > 41
CC50 [23]: > 83.5 µM

SMILES: C#C[C@@]1(O)[C@H](O)[C@@H](CO)O[C@H]1n1ccc2c(N)ncnc21
CC50 [19]: > 50 µM

SMILES: C[S+](CC[C@H](N)C(=O)[O-])C[C@H]1O[C@@H](n2cnc3c(N)ncnc32)[C@H](O)[C@@H]1O (some centres not stated) [ADEMETIONINE]
pKd (NS5 [21]): 5.59

SMILES: CO[C@H]1CC[C@@H](O[C@H]2C[C@H]([C@]3(C)CC[C@]4(C[C@H](O)[C@@H](C)[C@@H]([C@@H](C)/C=C(\C)C(=O)[C@H](C)C[C@H](C)C(=O)O)O4)O3)O[C@]3(O[C@@H]([C@H]4O[C@@](O)(CO)[C@H](C)C[C@@H]4C)C[C@@H]3C)[C@@H]2C)O[C@@H]1C
pEC50 (Zika virus [24]): 6.01
CC50 at 36 h [25]: 6.1 µM

SMILES: O=C(O[C@@H]1Cc2c(O)cc(O)cc2O[C@@H]1c1cc(O)c(O)c(O)c1)c1cc(O)c(O)c(O)c1 [EPIGALOCATECHIN GALLATE]
pIC50 (Nonstructural protein 3 [8]): 4.06

SMILES: CC(C)OC(=O)[C@H](C)NP(=O)(OC[C@H]1O[C@@H](n2ccc(=O)[nH]c2=O)[C@H](O)[C@@H]1O)Oc1ccccc1 (some centres not stated)
CC50 [26]: 47 µM

pEC50 (Zika virus [27]): 5.36 to 5.55
SMILES: CCN(CC)Cc1cc(Nc2ccnc3cc(Cl)ccc23)ccc1O [AMODIAQUINE]
pEC50 (Zika virus [28]): 5.36 to 5.55
